Experimental data published in patent US11530210B2, “Substituted heteroaromatic pyrazolo-pyridines and their use as GLUN2B receptor modulators” (JANSSEN PHARMACEUTICA NV, priority 2019, dated 2022).
Counter-ions that a name gives are not always drawn.

Each compound was assayed against T1, human GluN1/GluN2B NMDA receptors (Homo sapiens, UniProt Q13224) (assay: Calcium flux (FLIPR) assay on cloned human NR1/GluN2B ion channels expressed in mammalian cells (standard and HTS variants)). Conditions: cells expressing human GluN1/GluN2B, glutamate and glycine co-agonists.
T1 construct: expressed in transfected cells
Assay type: cell-based
Outline: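 Tet-On-induced stable cell line loaded with Calcium 5 dye; compounds applied 5 min (agonist check), then glutamate at ~EC40 plus 10 μM glycine for 5 min. Buffer pH 7.4 with 0.5 mM MgCl2 in dye loading (standard) or 1.5 mM (HTS). FLIPR fluorescence normalized to control wells; (+)MK-801 as antagonist control.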

T1 sequence (Q13224 27-1484, other chains not shown): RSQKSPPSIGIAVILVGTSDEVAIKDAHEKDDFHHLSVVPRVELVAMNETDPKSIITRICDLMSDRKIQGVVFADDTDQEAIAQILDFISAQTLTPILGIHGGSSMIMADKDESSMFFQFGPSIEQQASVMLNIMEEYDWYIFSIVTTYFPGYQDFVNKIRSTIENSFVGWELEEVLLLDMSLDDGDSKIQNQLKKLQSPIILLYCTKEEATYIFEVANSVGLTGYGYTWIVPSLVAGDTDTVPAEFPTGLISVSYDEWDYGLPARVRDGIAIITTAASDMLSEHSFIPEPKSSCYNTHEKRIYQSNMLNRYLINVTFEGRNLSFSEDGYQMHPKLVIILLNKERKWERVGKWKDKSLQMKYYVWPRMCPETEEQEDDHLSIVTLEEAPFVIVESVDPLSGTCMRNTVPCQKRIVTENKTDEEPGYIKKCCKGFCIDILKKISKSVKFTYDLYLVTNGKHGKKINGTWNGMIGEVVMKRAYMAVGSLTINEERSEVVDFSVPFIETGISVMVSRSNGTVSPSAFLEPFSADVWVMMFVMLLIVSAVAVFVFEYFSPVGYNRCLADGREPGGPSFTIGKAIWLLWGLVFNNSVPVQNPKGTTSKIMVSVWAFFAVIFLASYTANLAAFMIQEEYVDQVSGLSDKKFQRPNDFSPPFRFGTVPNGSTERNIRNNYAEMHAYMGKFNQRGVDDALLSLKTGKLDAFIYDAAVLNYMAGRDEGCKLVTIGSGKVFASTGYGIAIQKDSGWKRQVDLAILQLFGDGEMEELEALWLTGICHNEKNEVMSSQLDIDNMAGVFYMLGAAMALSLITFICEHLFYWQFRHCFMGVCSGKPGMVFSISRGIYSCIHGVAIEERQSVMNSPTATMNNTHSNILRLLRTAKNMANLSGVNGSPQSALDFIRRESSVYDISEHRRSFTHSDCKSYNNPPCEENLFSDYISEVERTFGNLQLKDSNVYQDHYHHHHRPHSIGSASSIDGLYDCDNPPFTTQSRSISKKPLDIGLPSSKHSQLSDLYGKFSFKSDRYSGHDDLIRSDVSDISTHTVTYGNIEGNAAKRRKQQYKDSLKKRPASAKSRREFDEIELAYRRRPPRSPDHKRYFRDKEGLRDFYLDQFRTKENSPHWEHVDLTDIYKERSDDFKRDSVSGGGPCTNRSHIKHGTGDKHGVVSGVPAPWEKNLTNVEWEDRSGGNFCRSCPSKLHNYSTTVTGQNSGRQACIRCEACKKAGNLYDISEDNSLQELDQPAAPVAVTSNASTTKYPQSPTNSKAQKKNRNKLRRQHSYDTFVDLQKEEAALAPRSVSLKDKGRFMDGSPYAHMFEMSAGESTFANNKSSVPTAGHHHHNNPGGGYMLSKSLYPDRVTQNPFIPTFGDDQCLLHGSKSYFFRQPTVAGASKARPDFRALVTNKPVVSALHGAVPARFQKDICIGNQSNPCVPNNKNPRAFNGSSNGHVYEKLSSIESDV

| Structure (SMILES) | IC50 |
| --- | --- |
| Cc1cncc(Cn2ncc3ncc(-c4ccc(F)c(C)c4)cc32)c1 [Example 180, 6-(4-Fluoro-3-methyl-phenyl)-1-[(5-methyl-3-pyridyl)methyl]pyrazolo[4,3-b]pyridine trifluoroacetate salt] | 62 nM |
| Cc1cc(-c2cnc3cnn(Cc4cnccc4C)c3c2)ccc1F [Example 181, 6-(4-Fluoro-3-methyl-phenyl)-1-[(4-methyl-3-pyridyl)methyl]pyrazolo[4,3-b]pyridine trifluoroacetate salt] | 113 nM |
| Cc1cc(-c2cnc3cnn(Cc4ccc(F)nc4)c3c2)ccc1F [Example 182, 6-(4-Fluoro-3-methyl-phenyl)-1-[(6-fluoro-3-pyridyl)methyl]pyrazolo[4,3-b]pyridine] | 64 nM |
| Cc1cc(-c2cnc3cnn(Cc4cncc(F)c4)c3c2)ccc1F [Example 183, 6-(4-Fluoro-3-methyl-phenyl)-1-[(5-fluoro-3-pyridyl)methyl]pyrazolo[4,3-b]pyridine] | 21 nM |
| Cc1ccncc1Cn1ncc2ncc(-c3cc(F)cc(F)c3)cc21 [Example 184, 6-(3,5-Difluorophenyl)-1-[(4-methyl-3-pyridyl)methyl]pyrazolo[4,3-b]pyridine trifluoroacetate salt] | 68 nM |
| Fc1cncc(Cn2ncc3ncc(-c4cc(F)cc(F)c4)cc32)c1 [Example 185, 6-(3,5-Difluorophenyl)-1-[(5-fluoro-3-pyridyl)methyl]pyrazolo[4,3-b]pyridine] | 45 nM |
| Fc1ccc(-c2cnc3cnn(Cc4ccccn4)c3c2)cc1F [Example 186, 6-(3,4-Difluorophenyl)-1-(2-pyridylmethyl)pyrazolo[4,3-b]pyridine trifluoroacetate salt] | 2520 nM |
| Fc1ccc(-c2cnc3cnn(Cc4cccnc4)c3c2)cc1F [Example 187, 6-(3,4-Difluorophenyl)-1-(3-pyridylmethyl)pyrazolo[4,3-b]pyridine trifluoroacetate salt] | 218 nM |
| Cc1ncccc1Cn1ncc2ncc(-c3ccc(F)c(F)c3)cc21 [Example 188, 6-(3,4-Difluorophenyl)-1-[(2-methyl-3-pyridyl)methyl]pyrazolo[4,3-b]pyridine] | 3620 nM |
| Cc1cncc(Cn2ncc3ncc(-c4ccc(F)c(F)c4)cc32)c1 [Example 189, 6-(3,4-Difluorophenyl)-1-[(5-methyl-3-pyridyl)methyl]pyrazolo[4,3-b]pyridine] | 70 nM |
| Cc1ccncc1Cn1ncc2ncc(-c3ccc(F)c(F)c3)cc21 [Example 190, 6-(3,4-Difluorophenyl)-1-[(4-methyl-3-pyridyl)methyl]pyrazolo[4,3-b]pyridine trifluoroacetate salt] | 158 nM |
| Fc1ccc(Cn2ncc3ncc(-c4ccc(F)c(F)c4)cc32)cn1 [Example 191, 6-(3,4-Difluorophenyl)-1-[(6-fluoro-3-pyridyl)methyl]pyrazolo[4,3-b]pyridine] | 176 nM |
| Fc1cncc(Cn2ncc3ncc(-c4ccc(F)c(F)c4)cc32)c1 [Example 192, 6-(3,4-Difluorophenyl)-1-[(5-fluoro-3-pyridyl)methyl]pyrazolo[4,3-b]pyridine trifluoroacetate salt] | 48 nM |
| COc1cncc(Cn2ncc3ncc(-c4ccc(F)c(F)c4)cc32)c1 [Example 193, 6-(3,4-Difluorophenyl)-1-[(5-methoxy-3-pyridyl)methyl]pyrazolo[4,3-b]pyridine] | 277 nM |
| Fc1ccc(-c2cnc3cnn(Cc4cncc(OC(F)F)c4)c3c2)cc1F [Example 194, 1-[[5-(Difluoromethoxy)-3-pyridyl]methyl]-6-(3,4-difluorophenyl)pyrazolo[4,3-b]pyridine] | 850 nM |
| Fc1cncc(Cn2ncc3ncc(-c4ccc(F)c(Cl)c4)cc32)c1 [Example 195, 6-(3-Chloro-4-fluoro-phenyl)-1-[(5-fluoro-3-pyridyl)methyl]pyrazolo[4,3-b]pyridine] | 25 nM |
| COc1cncc(Cn2ncc3ncc(-c4ccc(F)c(Cl)c4)cc32)c1 [Example 196, 6-(3-Chloro-4-fluoro-phenyl)-1-[(5-methoxy-3-pyridyl)methyl]pyrazolo[4,3-b]pyridine] | 152 nM |
| Fc1ccc(-c2cnc3cnn(Cc4ccccn4)c3c2)cc1C(F)F [Example 197, 6-[3-(Difluoromethyl)-4-fluoro-phenyl]-1-(2-pyridylmethyl)pyrazolo[4,3-b]pyridine] | 130 nM |
| Cc1nn(Cc2cccnc2)c2cc(-c3ccc(F)c(C(F)F)c3)cnc12 [Example 199, 6-[3-(Difluoromethyl)-4-fluoro-phenyl]-3-methyl-1-(3-pyridylmethyl)pyrazolo[4,3-b]pyridine] | 34 nM |
| Cc1cncc(Cn2ncc3ncc(-c4ccc(F)c(C(F)F)c4)cc32)c1 [Example 200, 6-[3-(Difluoromethyl)-4-fluoro-phenyl]-1-[(5-methyl-3-pyridyl)methyl]pyrazolo[4,3-b]pyridine] | 12 nM |
| Fc1ccc(Cn2ncc3ncc(-c4ccc(F)c(C(F)F)c4)cc32)cn1 [Example 201, 6-(3-(Difluoromethyl)-4-fluorophenyl)-1-((6-fluoropyridin-3-yl)methyl)-1H-pyrazolo[4,3-b]pyridine] | 16 nM |
| N#Cc1cncc(Cn2ncc3ncc(-c4ccc(F)c(C(F)F)c4)cc32)c1 [Example 203, 5-[[6-[3-(Difluoromethyl)-4-fluoro-phenyl]pyrazolo[4,3-b]pyridin-1-yl]methyl]pyridine-3-carbonitrile] | 31 nM |

Next, values leading:

| IC50 | Structure (SMILES) |
| --- | --- |
| 1620 nM | COc1ccc(Cn2ncc3ncc(-c4ccc(F)c(C(F)F)c4)cc32)cn1 [Example 204, 6-[3-(Difluoromethyl)-4-fluoro-phenyl]-1-[(6-methoxy-3-pyridyl)methyl]pyrazolo[4,3-b]pyridine] |
| 177 nM | COc1cccc(Cn2ncc3ncc(-c4ccc(F)c(C(F)F)c4)cc32)n1 [Example 205, 6-[3-(Difluoromethyl)-4-fluoro-phenyl]-1-[(6-methoxy-2-pyridyl)methyl]pyrazolo[4,3-b]pyridine] |
| 307 nM | COc1ncccc1Cn1ncc2ncc(-c3ccc(F)c(C(F)F)c3)cc21 [Example 206, 6-[3-(Difluoromethyl)-4-fluoro-phenyl]-1-[(2-methoxy-3-pyridyl)methyl]pyrazolo[4,3-b]pyridine] |
| 28 nM | COc1cncc(Cn2ncc3ncc(-c4ccc(F)c(C(F)F)c4)cc32)c1 [Example 207, 6-[3-(Difluoromethyl)-4-fluoro-phenyl]-1-[(5-methoxy-3-pyridyl)methyl]pyrazolo[4,3-b]pyridine] |
| 26 nM | Fc1ccc(-c2cnc3cnn(Cc4cncc(Cl)c4)c3c2)cc1C(F)F [Example 208, 1-[(5-Chloro-3-pyridyl)methyl]-6-[3-(difluoromethyl)-4-fluoro-phenyl]pyrazolo[4,3-b]pyridine] |
| 20 nM | Fc1ccc(-c2cnc3cnn(Cc4cncc(C(F)F)c4)c3c2)cc1C(F)F [Example 209, 6-[3-(Difluoromethyl)-4-fluoro-phenyl]-1-[[5-(difluoromethyl)-3-pyridyl]methyl]pyrazolo[4,3-b]pyridine] |
| 110 nM | Fc1ccc(-c2cnc3cnn(Cc4cncc(OC(F)F)c4)c3c2)cc1C(F)F [Example 210, 1-[[5-(Difluoromethoxy)-3-pyridyl]methyl]-6-[3-(difluoromethyl)-4-fluoro-phenyl]pyrazolo[4,3-b]pyridine] |
| 47 nM | Fc1ccc(-c2cnc3cnn(Cc4cncc(C(F)(F)F)c4)c3c2)cc1C(F)F [Example 211, 6-[3-(Difluoromethyl)-4-fluoro-phenyl]-1-[[5-(trifluoromethyl)-3-pyridyl]methyl]pyrazolo[4,3-b]pyridine] |
| 67 nM | N#Cc1cncc(Cn2ncc3ncc(-c4cccc(C(F)F)c4F)cc32)c1 [Example 212, 5-[[6-[3-(Difluoromethyl)-2-fluoro-phenyl]pyrazolo[4,3-b]pyridin-1-yl]methyl]pyridine-3-carbonitrile] |
| 68 nM | Fc1c(-c2cnc3cnn(Cc4cncc(Cl)c4)c3c2)cccc1C(F)F [Example 213, 1-[(5-Chloro-3-pyridyl)methyl]-6-[3-(difluoromethyl)-2-fluoro-phenyl]pyrazolo[4,3-b]pyridine] |
| 1910 nM | Fc1ccc(Cn2ncc3ncc(-c4ccc(Cl)c(Cl)c4)cc32)cn1 [Example 214, 6-(3,4-Dichlorophenyl)-1-[(6-fluoro-3-pyridyl)methyl]pyrazolo[4,3-b]pyridine] |
| 217 nM | COc1cncc(Cn2ncc3ncc(-c4ccc(Cl)c(Cl)c4)cc32)c1 [Example 215, 6-(3,4-Dichlorophenyl)-1-[(5-methoxy-3-pyridyl)methyl]pyrazolo[4,3-b]pyridine] |
| 109 nM | CC(F)(F)c1cc(-c2cnc3cnn(Cc4cccnc4)c3c2)ccc1F [Example 216, 6-[3-(1,1-Difluoroethyl)-4-fluoro-phenyl]-1-(3-pyridylmethyl)pyrazolo[4,3-b]pyridine] |
| 189 nM | Cc1cncc(Cn2ncc3ncc(-c4ccc(F)c(C(C)(F)F)c4)cc32)c1 [Example 217, 6-[3-(1,1-Difluoroethyl)-4-fluoro-phenyl]-1-[(5-methyl-3-pyridyl)methyl]pyrazolo[4,3-b]pyridine] |
| 107 nM | CC(F)(F)c1cc(-c2cnc3cnn(Cc4cncc(F)c4)c3c2)ccc1F [Example 218, 6-[3-(1,1-Difluoroethyl)-4-fluoro-phenyl]-1-[(5-fluoro-3-pyridyl)methyl]pyrazolo[4,3-b]pyridine] |
| 158 nM | CC(F)(F)c1cc(-c2cnc3cnn(Cc4cncc(C#N)c4)c3c2)ccc1F [Example 219, 5-[[6-[3-(1,1-Difluoroethyl)-4-fluoro-phenyl]pyrazolo[4,3-b]pyridin-1-yl]methyl]pyridine-3-carbonitrile] |
| 89 nM | COc1cncc(Cn2ncc3ncc(-c4ccc(F)c(C(C)(F)F)c4)cc32)c1 [Example 220, 6-[3-(1,1-Difluoroethyl)-4-fluoro-phenyl]-1-[(5-methoxy-3-pyridyl)methyl]pyrazolo[4,3-b]pyridine] |
